# Laboratory results taken from US20250289817A1, “SEROTONIN RECEPTOR MODULATORS AND METHODS OF MAKING AND USING THE SAME” (Kuleon LLC, priority 2022, published 2025).
# pEC50: −log10 of the molar value.
# Experiments:
# 5-HT2A [1] = biological target: T1, 5-HT2A (Homo sapiens, UniProt P28223); assay: Gq activation via Gq/γ1 dissociation BRET, 5-HT2A; assay type: cell-based; settings: HEK293T cells; for pEC50: Gq dissociation BRET2, 1 hour at 37° C.; for Emax: HEK-293T, Gq dissociation BRET2, normalized to % 5-HT stimulation
# T1 construct: expressed in transfected cells; host or cells: HEK293T
# Text: (§1) To measure 5-HT2 receptor-mediated Gq activation via Gq/y1 dissociation as measured by Bioluminescence Resonance Energy Transfer (BRET) (McCorvy JD, Wacker D, Wang S, Agegnehu B, Liu J, Lansu K, Tribo A R, Olsen R HJ, Che T, Jin J, Roth B L. Structural determinants of 5-HT2B receptor activation and biased agonism. Nat Struct Mo/ Biol. 2018; 25(9): 787-96), HEK293T cells were sub-cultured in Dulbecco's Modified Eagle Medium (DMEM) supplemented with 10% dialyzed fetal bovine serum (FBS) and were co-transfected in a 1:1:1:1 ratio with Rluc8-fused human Gaq (Gaq-Rluc8), a GFP2-fused to the C-terminus of human Gy1(Gy1-GFP2), human G131, and 5-HT2 receptor using TransiT-2020. After at least 18-24 hours, transfected cells were plated in poly-lysine coated 96-well white clear bottom cell culture plates in DMEM containing 1% dialyzed FBS at a density of 25,000-40,000 cells in 200 μL per well and incubated overnight. The following day, medium was decanted, and cells were washed with 60 μL of drug buffer (1×HBSS, 20 mM HEPES, pH 7.4), then 60 μL of drug buffer was added per well. Cells were pre-incubated at in a humidified atmosphere at 37° C. before receiving drug stimulation. Drug stimulation utilized 30 μL addition of drug (3×) diluted in McCorvy buffer (1×HBSS, 20 mM HEPES, pH 7.4, supplemented with 0.3% BSA fatty acid free, 0.03% ascorbic acid) and plates were incubated at for 1 hour at 37° C. Substrate addition occurred 15 minutes before reading and utilized 10 μL of the Rluc substrate coelenterazine 400a for Gq dissociation BRET^2 (Prolume/Nanolight, 5 μM final concentration). Plates were read for luminescence at 400 nm and fluorescent GFP2 emission at 510 nm at 1 second per well using a Mithras LB940 multimode microplate reader (e.g. one provided by Berthold). The BRET ratios of fluorescence/luminescence were calculated per well and were plotted as a function of drug concentration using Graphpad Prism 8 (Graphpad Software Inc., San Diego, CA). Data were normalized to % 5-HT stimulation and analyzed using nonlinear regression “log(agonist) vs. response” to yield Emax and EC50 parameter estimates. Results are shown in Table 8, where A=<10; B=10 to <100; C=100 to 1000 and D=>1000; +++=>70%; ++=50 to 70%; and +=<50%; NC=not calculated. […] Hallucinogenic (“Hall”) or non-hallucinogenic (“N-Hall”) plastogenic effect is predicted for compounds based on the level 5-HT2A agonist efficacy.
# 5-HT2B = biological target: T2, 5-HT2B (Homo sapiens, UniProt P41595); assay: Gq activation via Gq/γ1 dissociation BRET, 5-HT2B; assay type: cell-based; settings: HEK293T cells, AT* = data suggests antagonistic effect at 5-HT2B (footnote); for Emax: HEK-293T, Gq dissociation BRET2, normalized to % 5-HT stimulation
# T2 construct: expressed in transfected cells; host or cells: HEK293T
# Text: as §1
# 5-HT2C [2] = biological target: T3, 5-HT2C (Homo sapiens, UniProt P28335); assay: Gq signaling bias for 5-HT2C (Gq-coupled versus B-arrestin signaling); assay type: cell-based; settings: primary signaling for 5-HT2C via Gq-coupled mechanism compared to B-arrestin
# T3 sequence (P28335 33-458): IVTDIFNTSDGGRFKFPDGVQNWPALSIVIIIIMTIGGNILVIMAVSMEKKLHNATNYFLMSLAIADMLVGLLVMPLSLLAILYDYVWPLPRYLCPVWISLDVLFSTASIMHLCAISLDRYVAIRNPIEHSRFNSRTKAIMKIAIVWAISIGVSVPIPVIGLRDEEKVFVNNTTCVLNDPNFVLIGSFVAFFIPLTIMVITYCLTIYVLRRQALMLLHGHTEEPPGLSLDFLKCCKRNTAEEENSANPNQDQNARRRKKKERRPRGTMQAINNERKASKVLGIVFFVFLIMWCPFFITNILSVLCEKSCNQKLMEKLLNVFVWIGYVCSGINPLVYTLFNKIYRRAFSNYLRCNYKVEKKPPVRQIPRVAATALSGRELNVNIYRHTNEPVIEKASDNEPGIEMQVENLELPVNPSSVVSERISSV
# Text: as §1
# 5-HT2A [3] = biological target: T1, 5-HT2A; assay: Predicted hallucinogenic or non-hallucinogenic plastogenic effect based on 5-HT2A agonist efficacy; settings: hallucinogenic (Hall) or non-hallucinogenic (N-Hall) plastogenic effect predicted from level of 5-HT2A agonist efficacy
# Text: as §1
# 5-HT2C [4] = biological target: T3, 5-HT2C; assay: Gq activation via Gq/γ1 dissociation BRET, 5-HT2C; assay type: cell-based; parameters: expressed in transfected cells; host or cells: HEK293T; settings: for Emax: HEK-293T, read-out: 5-HT2C Emax (%)
# Text: as §1
# [5] = Gq dissociation BRET2, 1 hour at 37° C.
# T2 sequence (P41595 whole entry): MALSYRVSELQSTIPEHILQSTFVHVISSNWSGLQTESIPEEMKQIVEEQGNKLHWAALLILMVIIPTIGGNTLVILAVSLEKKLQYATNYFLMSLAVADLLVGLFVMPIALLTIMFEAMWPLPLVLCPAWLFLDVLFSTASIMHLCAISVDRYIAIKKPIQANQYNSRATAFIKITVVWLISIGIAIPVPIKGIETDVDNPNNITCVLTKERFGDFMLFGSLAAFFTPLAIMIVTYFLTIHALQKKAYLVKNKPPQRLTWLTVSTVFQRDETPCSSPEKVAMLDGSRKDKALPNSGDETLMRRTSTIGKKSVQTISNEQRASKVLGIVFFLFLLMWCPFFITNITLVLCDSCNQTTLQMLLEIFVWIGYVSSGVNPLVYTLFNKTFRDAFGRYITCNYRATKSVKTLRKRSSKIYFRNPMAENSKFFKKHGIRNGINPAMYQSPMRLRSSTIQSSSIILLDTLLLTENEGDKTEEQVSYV
# T1 sequence (P28223 whole entry): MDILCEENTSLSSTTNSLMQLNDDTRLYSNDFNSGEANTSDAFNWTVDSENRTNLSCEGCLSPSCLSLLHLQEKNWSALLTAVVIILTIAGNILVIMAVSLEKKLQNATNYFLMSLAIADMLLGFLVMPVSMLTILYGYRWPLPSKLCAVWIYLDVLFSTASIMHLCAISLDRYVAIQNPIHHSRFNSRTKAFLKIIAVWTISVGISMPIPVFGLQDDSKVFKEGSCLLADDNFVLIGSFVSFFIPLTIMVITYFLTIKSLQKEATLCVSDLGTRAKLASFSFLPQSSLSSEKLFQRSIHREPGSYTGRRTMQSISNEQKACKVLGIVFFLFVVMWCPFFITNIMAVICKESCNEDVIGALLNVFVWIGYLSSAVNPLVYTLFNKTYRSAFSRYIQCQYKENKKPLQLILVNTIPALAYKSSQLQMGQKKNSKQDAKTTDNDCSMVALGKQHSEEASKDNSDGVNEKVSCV
Structure (SMILES),pEC50 (5-HT2A [1]),Emax (5-HT2A [1]) [%],Emax (5-HT2B) [%],Gq signaling bias? (5-HT2C [2]),Hall or N-Hall? (5-HT2A [3]),pEC50 (5-HT2C [4]),Emax (5-HT2C [4]) [%],pEC50 (5-HT2B; [5]),5-HT2B EC50 (nM) (5-HT2B; [5])
C1=C(c2csc3ccccc23)CNC1,7.00 to 8.00,> 70,< 50,Yes,Hall,> 8.00,> 70,,
Cl.c1ccc2c(C3CCNC3)csc2c1 (stereo not shown),6.00 to 7.00,50 to 70,< 50,Yes,N-Hall,7.00 to 8.00,> 70,,
Fc1cnc2[nH]cc(C3=CCNC3)c2c1,6.00 to 7.00,> 70,> 70,No,Hall,7.00 to 8.00,> 70,6.00 to 7.00,
C1=C(c2c[nH]c3ncccc23)CNC1,,< 50,< 50,No,N-Hall,,< 50,,
CN1CC=C(c2csc3ccccc23)C1,7.00 to 8.00,50 to 70,< 50,,,> 8.00,> 70,< 6.00,
CN1CC=C(c2csc3cc(F)ccc23)C1,6.00 to 7.00,< 50,,,,7.00 to 8.00,50 to 70,,AT*
CN1CC(c2csc3ccccc23)C1.Cl,< 6.00,< 50,< 50,Yes,N-Hall,7.00 to 8.00,> 70,6.00 to 7.00,
